Assay results reported in article PMC10460728 (Journal of Pharmacokinetics and Pharmacodynamics, 2023).
Values belong to the compound of their own block, whether it stands above or below them.

How the values were obtained:
[1] = design: method as in FDA CP review; settings: ref FDA CP review; cited from earlier work
[2] = once-daily oral 160 mg enzalutamide for 49 days; mean
P-gp (human MDR1) = P-gp (human MDR1) (Homo sapiens, UniProt P08183); experiment: In vitro P-gp inhibition: 3H-digoxin permeation across control and MDR1-expressing LLC-PK1 cell monolayers
Experimental: MDR1-expressing cells (porcine kidney epithelial LLC-PK1 cells transfected with human MDR1 cDNA) was used. The MDR1-expressing cells were seeded at a density of 4 × 10^4 cells/insert in plates and were incubated in a CO2 incubator (37 °C, CO2: 5%) for 7 to 9 days to prepare cell monolayers. […] After incubation for 4 h at 37 °C, a 70-μL aliquot of the incubation solutions was collected as the analytical sample from the opposite compartment of that spiked with test solutions (receiver compartment). The collected samples were immediately combined with 10 mL of scintillator, and the radioactivity was counted using the LSC. Permeability coefficient (Papp) of ^3H-digoxin was calculated using the following equation: Pappcm/sec=[dQ/dt]/A/C0 where dQ/dt is the transport rate (dpm/sec); A is the membrane area (cm^2); C0 is the initial concentration (dpm/mL). The ratio of permeability coefficient (Papp ratio) was calculated from the basal to apical Papp and apical to basal Papp according to the following equation: Pappratio=BasaltoapicalPapp/ApicaltobasalPapp
Furthermore, the ratios of the Papp ratios in MDR1-expressing cells to the Papp ratios in control cells were calculated as corrected Papp ratio according to the following equation: CorrectedPappratio=PappratiooftheMDR1expressingcells/Pappratioofthecontrolcells
The % of control was calculated from the corrected Papp ratio according to the following equation: \% \,of\,control=CorrectedPappratio\,in\,the\,absence\,or\,presence\,of\,inhibitors/CorrectedPappratio\,in\,the\,absence\,of\,inhibitors×100

[3] = Caco-2 passive permeability; format: in vitro ADME; settings: human, Caco-2, pH 6.5; internal data; read-out: Papp Caco-2 passive permeability (pH6.5:7.5)
Excerpt: Many of the physicochemical properties and plasma protein binding data were obtained internally and also referenced from FDA documents [9], which are available from the FDA website.

[4] = cited from earlier work
clinical = settings: human, plasma, po, 160 mg; for Cmax: observed, mean
[5] = PBPK models of enzalutamide and M2 (Simcyp)
Excerpt: Many of the physicochemical properties and plasma protein binding data were obtained internally and also referenced from FDA documents, which are available from the FDA website. […] Accordingly, the solution formulation option in the Simcyp model was used.
The PBPK models of CYP2C8 inhibitor (gemfibrozil), CYP3A4 substrate (midazolam), and P-gp substrate (digoxin) were used from the Simcyp software library with models that were verified for their intended purpose.

CYP3A4 [6] = settings: calibrated with positive control rifampicin; Simcyp input
Experimental: (§1) Hepatocytes were cultured according to previously described methods [8]. […] Single-stranded cDNA was prepared from RNA with the RT Master Mix using the AB 7900HT Fast Real Time PCR System thermocycling program. Quantitative RT-PCR was carried out in triplicate. Relative quantification measures the change in mRNA expression in a test sample relative to that in a control sample (e.g., DMSO). This method assumes that the efficiency of the target amplification and the efficiency of the endogenous control amplification are approximately equal.
(§2) The maximal fold induction (Indmax) and half concentration to reach Indmax (IndC50) were determined based on the following equation: Foldinduction=1+Indmax-1×Ct/IndC50+Ct where Ct is the test drug concentration.

[7] = plasma; ref FDA CP review; cited from earlier work
OAT3 = molecular target: T1, OAT3 (Homo sapiens, UniProt Q8TCC7); experiment: In vitro OAT3 inhibition (internal data); format: cell-based
T1 sequence (Q8TCC7 1-542): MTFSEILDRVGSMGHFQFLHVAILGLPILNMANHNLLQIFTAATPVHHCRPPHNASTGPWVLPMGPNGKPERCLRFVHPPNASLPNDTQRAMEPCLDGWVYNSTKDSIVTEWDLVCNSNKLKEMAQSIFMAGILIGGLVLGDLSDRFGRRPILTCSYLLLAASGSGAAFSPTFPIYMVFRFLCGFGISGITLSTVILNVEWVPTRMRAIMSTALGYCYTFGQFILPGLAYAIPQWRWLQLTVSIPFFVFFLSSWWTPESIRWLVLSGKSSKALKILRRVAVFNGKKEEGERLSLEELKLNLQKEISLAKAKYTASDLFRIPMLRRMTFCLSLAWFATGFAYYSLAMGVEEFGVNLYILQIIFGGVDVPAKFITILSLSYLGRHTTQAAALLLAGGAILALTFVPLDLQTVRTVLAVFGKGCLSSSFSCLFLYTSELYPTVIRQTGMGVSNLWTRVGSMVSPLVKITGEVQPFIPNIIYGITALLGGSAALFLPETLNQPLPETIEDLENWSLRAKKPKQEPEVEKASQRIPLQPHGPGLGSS

CYP3A5 = CYP3A5 (Homo sapiens, UniProt P20815); experiment: In vitro CYP3A5 inhibition (internal data); format: biochemical
CYP3A4 [8] = experiment: in vitro; settings: human, freshly isolated, cultured human hepatocytes
Experimental: as §1, §2

CYP3A4 [9] = molecular target: CYP3A4 (Homo sapiens, UniProt P08684); experiment: In vitro CYP3A4 inhibition (internal data); format: biochemical
CYP3A and P-gp = system: CYP3A and P-gp; design: method as in PMID 33030266; settings: assumed in model development, verified with clinical DDI studies; cited from earlier work
P-gp and CYP3A = settings: rivaroxaban; cited from earlier work
CYP1A2 = settings: human, hepatocytes, 50 µmol/L
Experimental: as §1, §2

P-gp = P-gp mRNA induction in cultured human hepatocytes; format: cell-based; settings: 50 µmol/L
[10] = retrograde calculation from CLpo 0.60 L/h

P-gp (human MDR1), sequence (P08183 whole entry): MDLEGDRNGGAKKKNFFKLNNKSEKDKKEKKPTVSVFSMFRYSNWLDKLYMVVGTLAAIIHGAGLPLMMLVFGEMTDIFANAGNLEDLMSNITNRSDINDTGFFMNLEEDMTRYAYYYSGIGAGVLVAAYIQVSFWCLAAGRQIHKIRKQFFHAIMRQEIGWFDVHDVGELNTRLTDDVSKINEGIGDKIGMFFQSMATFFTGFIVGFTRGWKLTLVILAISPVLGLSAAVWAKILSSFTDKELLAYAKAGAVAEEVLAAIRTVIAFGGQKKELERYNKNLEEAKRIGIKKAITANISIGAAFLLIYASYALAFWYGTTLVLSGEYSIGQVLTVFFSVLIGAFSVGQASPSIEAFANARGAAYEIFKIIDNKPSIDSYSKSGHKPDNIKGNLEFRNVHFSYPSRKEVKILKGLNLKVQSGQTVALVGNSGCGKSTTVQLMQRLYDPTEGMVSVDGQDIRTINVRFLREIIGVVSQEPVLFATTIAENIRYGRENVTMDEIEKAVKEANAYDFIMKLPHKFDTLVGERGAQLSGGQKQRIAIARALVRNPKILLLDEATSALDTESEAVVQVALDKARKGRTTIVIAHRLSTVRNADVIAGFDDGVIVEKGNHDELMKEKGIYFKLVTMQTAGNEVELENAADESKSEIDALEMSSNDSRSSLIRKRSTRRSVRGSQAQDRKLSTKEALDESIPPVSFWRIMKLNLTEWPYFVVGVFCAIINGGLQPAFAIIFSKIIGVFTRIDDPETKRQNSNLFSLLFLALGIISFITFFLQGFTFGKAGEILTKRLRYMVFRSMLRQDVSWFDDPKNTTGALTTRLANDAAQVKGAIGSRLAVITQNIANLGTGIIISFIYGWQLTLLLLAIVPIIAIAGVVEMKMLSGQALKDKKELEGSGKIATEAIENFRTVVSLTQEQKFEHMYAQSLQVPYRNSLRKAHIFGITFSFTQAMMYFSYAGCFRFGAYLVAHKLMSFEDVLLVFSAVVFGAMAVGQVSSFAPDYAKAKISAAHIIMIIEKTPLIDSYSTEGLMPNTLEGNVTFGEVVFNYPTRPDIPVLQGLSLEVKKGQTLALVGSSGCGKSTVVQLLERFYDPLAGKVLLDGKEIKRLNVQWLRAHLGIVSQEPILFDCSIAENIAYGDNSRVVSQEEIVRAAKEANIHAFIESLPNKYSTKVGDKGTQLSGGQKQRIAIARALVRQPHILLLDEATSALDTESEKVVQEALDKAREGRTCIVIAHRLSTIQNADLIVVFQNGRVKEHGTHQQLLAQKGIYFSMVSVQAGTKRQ
CYP3A5, sequence (P20815 whole entry): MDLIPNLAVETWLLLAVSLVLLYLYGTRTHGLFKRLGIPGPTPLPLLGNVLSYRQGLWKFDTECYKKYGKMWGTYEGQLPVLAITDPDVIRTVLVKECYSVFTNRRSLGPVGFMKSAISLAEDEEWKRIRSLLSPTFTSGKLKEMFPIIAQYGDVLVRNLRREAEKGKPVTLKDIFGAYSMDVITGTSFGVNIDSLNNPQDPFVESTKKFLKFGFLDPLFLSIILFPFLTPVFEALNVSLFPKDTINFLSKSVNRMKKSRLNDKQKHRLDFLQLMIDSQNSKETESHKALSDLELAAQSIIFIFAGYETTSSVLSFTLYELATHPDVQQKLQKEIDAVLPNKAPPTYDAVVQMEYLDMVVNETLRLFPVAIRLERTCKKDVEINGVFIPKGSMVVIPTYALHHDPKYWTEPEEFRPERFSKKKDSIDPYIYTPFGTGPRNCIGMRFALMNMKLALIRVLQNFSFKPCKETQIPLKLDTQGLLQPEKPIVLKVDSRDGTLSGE
CYP3A4 (Homo sapiens, UniProt P08684), sequence (P08684 whole entry): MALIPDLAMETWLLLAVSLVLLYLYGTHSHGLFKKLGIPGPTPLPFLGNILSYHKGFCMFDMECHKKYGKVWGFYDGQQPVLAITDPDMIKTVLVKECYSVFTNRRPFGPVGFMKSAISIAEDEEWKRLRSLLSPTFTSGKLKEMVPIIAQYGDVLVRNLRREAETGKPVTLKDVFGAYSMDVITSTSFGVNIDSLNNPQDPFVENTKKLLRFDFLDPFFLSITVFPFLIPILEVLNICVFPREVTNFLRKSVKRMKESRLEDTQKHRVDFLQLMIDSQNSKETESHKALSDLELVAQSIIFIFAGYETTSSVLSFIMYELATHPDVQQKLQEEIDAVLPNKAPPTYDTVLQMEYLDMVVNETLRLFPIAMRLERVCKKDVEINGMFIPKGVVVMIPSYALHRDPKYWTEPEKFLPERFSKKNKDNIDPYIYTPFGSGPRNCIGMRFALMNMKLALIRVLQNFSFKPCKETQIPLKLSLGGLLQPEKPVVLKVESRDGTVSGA

Cmin, observed [2]: 12000 ng/mL | IC50 (P-gp (human MDR1)): 1.67 µM | Ki (P-gp (human MDR1)): 1.67 µM | Papp [3]: 31 ×10⁻⁶ cm/s | AUC (clinical): 322 µg·h/mL | AUC(0-inf) (clinical): 288 µg·h/mL | Tmax (clinical): 0.75 h | half-life (clinical): 77.7 h | Cmax (clinical; once-daily oral 160 mg enzalutamide for 49 days): 16600 ng/mL | Cmax (clinical; single oral 160 mg enzalutamide): 5660 ng/mL | CYP3A4 CLint for M2 formation ([5]; PBPK model parameter, see text): 0.002312 mL/min/pmol enzyme | Peff,man ([5]; calculated from Caco-2 passive permeability calibrated to propranolol): 5.15 10^–4 cm/s | Contribution of CYP2C8 on enzalutamide elimination ([5]; estimated from clinical DDI study with gemfibrozil): 87% | CYP2C8 CLint for M2 formation [5, 10]: 0.1518 mL/min/pmol enzyme | CYP2C8 CLint for other pathway [5, 10]: 0.07475 mL/min/pmol enzyme | CYP3A4 CLint for other pathway [5, 10]: 0.003617 mL/min/pmol enzyme | Indmax on CYP3A4, calibrated (CYP3A4 [6]): 11.43 | Ki (OAT3): 15.1 µM | Ki (CYP3A5): 42 µM | EC50 (CYP3A4 [8]): 1.5 µM | Ki (CYP3A4 [9]): 42 µM
Structure (SMILES): CNC(=O)c1ccc(N2C(=S)N(c3ccc(C#N)c(C(F)(F)F)c3)C(=O)C2(C)C)cc1F [Enzalutamide]
Log P [1]: 2.98 | Vss ([4]; PBPK model parameter): 0.967 L/kg | Estimated bioavailability based on mass balance data ([4]; oral): ≥ 84% | fu [7]: 0.0244

Structure (SMILES): O=C(NC[C@H]1CN(c2ccc(N3CCOCC3=O)cc2)C(=O)O1)c1ccc(Cl)s1 [Rivaroxaban, rivaroxaban]
Contribution of CYP3A to hepatic metabolism (CYP3A and P-gp): 61% | Decrease in AUC by rifampicin (P-gp and CYP3A): 49%

Fold increase CYP1A2 mRNA (CYP1A2): 46.4 ± 7.2 fold
Structure (SMILES): COc1ccc2[nH]c([S+]([O-])Cc3ncc(C)c(OC)c3C)nc2c1 (centres unmarked) [Omeprazole, omeprazole, reference compound]
Fold increase P-gp mRNA (P-gp): 2.38 ± 1.68 fold
